From the supplement of paper PMC10307832

Tests used:
Assay in all cases: relative viability (nuclei count vs DMSO), 5 days (fraction); higher = more cells survive
FG-4592 + Palbociclib = compound: Cc1nc(C(=O)NCC(=O)O)c(O)c2ccc(Oc3ccccc3)cc12 [FG-4592] + CC(=O)c1c(C)c2cnc(Nc3ccc(N4CCNCC4)cn3)nc2n(C2CCCC2)c1=O [Palbociclib] (partner 0.5 µM)
How it was run: (§1)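 Lung cancer cell lines in 1536-well plates got either a single drug or a fixed anchor-drug dose together with five library-drug doses (not always all listed) in √10 steps, by pin tool, on the day after seeding. Nuclei were counted after 5 days, and relative viability is the treated-to-vehicle ratio of nuclei counts. Values are medians of duplicate plates.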

FG-4592 + AZD7762 = compound: Cc1nc(C(=O)NCC(=O)O)c(O)c2ccc(Oc3ccccc3)cc12 [FG-4592] + NC(=O)Nc1cc(-c2cccc(F)c2)sc1C(=O)N[C@H]1CCCNC1 [AZD7762] (partner 0.2 µM)
How it was run: as §1

IU1-47 + Alpelisib = compound: CC1=CC(=C(N1C2=CC=C(C=C2)Cl)C)C(=O)CN3CCCCC3 [IU1-47] + Cc1nc(NC(=O)N2CCC[C@H]2C(N)=O)sc1-c1ccnc(C(C)(C)C(F)(F)F)c1 [Alpelisib] (partner 2 µM)
How it was run: as §1

FG-4592 + Bortezomib = compound: Cc1nc(C(=O)NCC(=O)O)c(O)c2ccc(Oc3ccccc3)cc12 [FG-4592] + CC(C)C[C@H](NC(=O)[C@H](Cc1ccccc1)NC(=O)c1cnccn1)B(O)O [Bortezomib] (partner 0.002 µM)
How it was run: as §1

| Cell Line | relative viability (FG-4592 + Palbociclib; first compound 0.08 µM) | relative viability (FG-4592 + Palbociclib; first compound 0.253 µM) | relative viability (FG-4592 + Palbociclib; first compound 2.53 µM) | relative viability (FG-4592 + Palbociclib; first compound 8 µM) | relative viability (FG-4592 + AZD7762; first compound 0.08 µM) | relative viability (FG-4592 + AZD7762; first compound 0.253 µM) | relative viability (FG-4592 + AZD7762; first compound 2.53 µM) | relative viability (FG-4592 + AZD7762; first compound 8 µM) | relative viability (IU1-47 + Alpelisib; first compound 0.08 µM) | relative viability (IU1-47 + Alpelisib; first compound 0.253 µM) | relative viability (IU1-47 + Alpelisib; first compound 0.8 µM) | relative viability (IU1-47 + Alpelisib; first compound 2.53 µM) | relative viability (IU1-47 + Alpelisib; first compound 8 µM) | relative viability (FG-4592 + Palbociclib; first compound 0.8 µM) | relative viability (FG-4592 + Bortezomib; first compound 0.08 µM) | relative viability (FG-4592 + Bortezomib; first compound 0.253 µM) | relative viability (FG-4592 + Bortezomib; first compound 0.8 µM) | relative viability (FG-4592 + Bortezomib; first compound 2.53 µM) | relative viability (FG-4592 + Bortezomib; first compound 8 µM) | relative viability (FG-4592 + AZD7762; first compound 0.8 µM) |
| --- | --- | --- | --- | --- | --- | --- | --- | --- | --- | --- | --- | --- | --- | --- | --- | --- | --- | --- | --- | --- |
| NCI-H522 | 0.97 | 0.884 | 1.1 | 0.811 | 0.78 | 0.717 | 0.666 | 0.819 | – | – | – | – | – | – | – | – | – | – | – | – |
| HCC-15 | 0.73 | 0.767 | 0.733 | 0.755 | 1.29 | 1.25 | 1.18 | 1.25 | 0.99 | 0.926 | 0.978 | 0.825 | 0.82 | 0.684 | 1.01 | 0.913 | 1.07 | 1.07 | 0.999 | 1.14 |
| A-427 | 0.502 | 0.489 | 0.553 | 0.591 | 0.757 | 0.777 | 0.773 | 0.717 | 1.09 | 1.08 | 1.14 | – | 1.04 | 0.562 | 0.925 | 0.979 | 0.983 | 0.946 | 0.954 | 0.665 |
| NCI-H2228 | 0.678 | 0.762 | 0.89 | 0.421 | – | – | – | – | 0.904 | 1.06 | 0.687 | 0.796 | 0.451 | 0.603 | 0.928 | 0.872 | 0.786 | 1.1 | 0.737 | – |
| NCI-H1734 | 0.348 | 0.362 | 0.345 | 0.286 | 0.63 | 0.474 | 0.547 | 0.427 | 0.645 | 0.714 | 0.65 | – | 0.708 | 0.35 | 0.743 | 0.956 | 0.861 | 0.838 | 0.951 | 0.456 |
| PC-14 | 0.545 | 0.415 | 0.486 | 0.488 | 0.356 | 0.341 | 0.342 | 0.282 | 1.03 | 0.987 | 1.12 | 1.02 | 0.782 | 0.571 | 0.859 | 0.946 | 0.947 | 0.949 | 1.01 | 0.284 |
| NCI-H1915 | 0.475 | 0.513 | 0.504 | 0.513 | 0.672 | 0.652 | 0.637 | 0.669 | 1.07 | 1.11 | 1.13 | – | 1.07 | 0.496 | 0.933 | 0.922 | 0.95 | 0.884 | 1.01 | 0.715 |
| NCI-H1666 | 0.698 | 0.554 | 0.673 | 0.689 | 0.81 | 0.764 | 0.9 | 0.875 | 0.882 | 0.903 | 0.812 | 1.03 | 0.836 | 0.658 | 0.839 | 0.843 | 0.705 | 0.701 | 0.537 | 0.899 |
| HCC-366 | 0.365 | 0.367 | 0.437 | 0.291 | 0.243 | 0.248 | 0.364 | 0.269 | 0.479 | 0.424 | 0.524 | – | 0.231 | 0.311 | 0.9 | 1.01 | 1.11 | 1.12 | 0.99 | 0.28 |
| SK-MES-1 | 0.331 | 0.287 | 0.32 | 0.327 | – | – | – | – | 0.885 | 0.998 | 1.03 | 0.859 | 0.922 | 0.284 | – | – | – | – | – | – |
| SW 1573 | 0.342 | 0.368 | 0.31 | 0.238 | – | – | – | – | 0.905 | 0.758 | 0.664 | 0.756 | 0.839 | 0.382 | 1.04 | 0.954 | 0.963 | 1 | 1 | – |
| NCI-H661 | 0.397 | 0.408 | 0.397 | 0.396 | – | – | – | – | 0.909 | 0.603 | 0.581 | 0.593 | 0.404 | 0.373 | 0.637 | 0.858 | 0.723 | 0.682 | 0.638 | – |
| PC-3 [JPC-3] | 0.55 | 0.542 | 0.557 | 0.567 | 0.802 | 0.762 | 0.726 | 0.8 | 1.08 | 0.982 | 1.04 | – | 1.01 | – | 0.824 | 0.745 | 0.872 | 0.884 | 0.832 | – |
| Calu-6 | – | – | – | – | – | – | – | – | 0.907 | 1.01 | 0.989 | 0.985 | 1.25 | – | 0.98 | 0.854 | 0.938 | 1.1 | 0.926 | – |
| LC-2-ad | 0.473 | 0.456 | 0.549 | 0.476 | 0.912 | 0.833 | 0.817 | 0.83 | 0.897 | 0.951 | 0.919 | 0.973 | 0.767 | 0.515 | 0.98 | 1.02 | 0.973 | 1.05 | 0.878 | 0.831 |
| CAL-12T | 0.554 | 0.339 | 0.336 | 0.442 | 0.594 | 0.59 | 0.523 | 0.717 | 1.31 | 1.39 | 1.47 | 1.18 | 0.823 | 0.386 | 1.05 | 1.07 | 0.601 | 1.15 | 0.902 | 0.513 |
| RERF-LC-KJ | 1.02 | 0.89 | 1.05 | 1.04 | 0.913 | 0.992 | 0.883 | 0.969 | 0.785 | 0.946 | 0.775 | 0.869 | 0.76 | 0.937 | 0.99 | 0.975 | 0.967 | 1.11 | 1.06 | 0.815 |
| NCI-H1650 | 0.259 | 0.292 | 0.346 | 0.332 | – | – | – | – | – | – | – | – | – | 0.304 | 0.207 | 0.238 | 0.23 | 0.205 | 0.186 | – |
| BEN | 0.433 | 0.44 | 0.454 | 0.475 | 0.555 | 0.617 | 0.666 | 0.527 | 1.06 | 1.13 | 1.24 | 0.973 | 0.834 | 0.463 | 0.608 | 0.733 | 0.701 | 0.825 | 0.546 | 0.476 |
